Data taken from ChEMBL document CHEMBL5154793, “Discovery of Thieno[2,3-d]pyrimidine-based KRAS G12D inhibitors as potential anticancer agents via combinatorial virtual screening” (Eur J Med Chem, 2022).

Key:
[1] = Toxicity in BALB/c mouse allografted with mouse CT26 cells assessed as MCV level at 40 to 60 mg/kg, ip administered once a day for 10 days (reference value: 16 to 47 fL); type: organism-based; conditions: in vivo, 240 h, dose 40-60 mg/kg, time 10 day
[2] = test system: GTPase KRas (Homo sapiens), P01116 [G12D]; test: Inhibition of KRAS G12D mutant (unknown origin) downstream signalling in human SW1990 cells assessed as suppression of Raf phosphorylation incubated for 24 hrs by pull down based Western blotting analysis; type: cell-based; conditions: dose <= 16.0 µM, DDE = dose-dependent effect
Chain of GTPase KRas (Homo sapiens), P01116 [G12D] (P01116 whole entry G12D, looked up): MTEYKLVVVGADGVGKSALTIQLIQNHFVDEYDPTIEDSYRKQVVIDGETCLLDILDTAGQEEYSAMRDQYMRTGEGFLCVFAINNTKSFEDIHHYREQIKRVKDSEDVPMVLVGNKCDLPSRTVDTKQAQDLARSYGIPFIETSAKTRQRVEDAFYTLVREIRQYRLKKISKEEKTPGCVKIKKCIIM

[3] = target: GTPase KRas (Homo sapiens) (UniProt P01116); test: Inhibition of wild type KRAS (unknown origin) downstream signalling in human HCT-116 cells assessed as suppression of Raf phosphorylation incubated 24 hrs by pull down based Western blotting analysis; type: cell-based; conditions: dose <= 8.0 µM, DDE = dose-dependent effect
Chain of GTPase KRas (Homo sapiens) (P01116 whole entry, looked up): as the sequence (P01116 whole entry G12D, looked up) above, with D12G counted along it

SW1990 [4] = test: Antiproliferative activity against human SW1990 cells harboring KRAS G12D mutant assessed as inhibition of cell viability after 24 hrs by MTT assay; type: functional, cell-based; conditions: SW1990, 24 h
HCT-116 = test: Antiproliferative activity against human HCT-116 cells harboring KRAS G13D mutant assessed as inhibition of cell viability after 24 hrs by MTT assay; type: functional, cell-based; conditions: HCT-116, 24 h
NCI-H358 = test: Antiproliferative activity against human NCI-H358 cells harboring KRAS G12C mutant assessed as inhibition of cell viability after 24 hrs by MTT assay; type: functional, cell-based; conditions: NCI-H358, 24 h
CT26 [5] = test: Antiproliferative activity against mouse CT26 cells harboring KRAS G12D mutant assessed as inhibition of cell viability after 24 hrs by MTT assay; type: functional, cell-based; conditions: CT26, 24 h
SW1990 [6] = test: Induction of apoptosis in human SW1990 cells assessed as viable cells at 2 uM measured after 24 hrs by PI/Annexin V staining based flow cytometric analysis (reference value: 82.9%); type: functional; conditions: read-out: Activity
SW1990 [7] = test: Induction of apoptosis in human SW1990 cells assessed as early apoptotic cells at 2 uM measured after 24 hrs by PI/Annexin V staining based flow cytometric analysis (reference value: 10.7%); type: functional
SW1990 [8] = test: Induction of apoptosis in human SW1990 cells assessed as late apoptotic cells at 2 uM measured after 24 hrs by PI/Annexin V staining based flow cytometric analysis (reference value: 3.75%); type: functional
SW1990 [9] = test: Induction of apoptosis in human SW1990 cells assessed as early apoptotic cells at 4 uM measured after 24 hrs by PI/Annexin V staining based flow cytometric analysis (reference value: 10.7%); type: functional
SW1990 [10] = test: Induction of apoptosis in human SW1990 cells assessed as late apoptotic cells at 4 uM measured after 24 hrs by PI/Annexin V staining based flow cytometric analysis (reference value: 3.75%); type: functional
SW1990 [11] = test: Induction of apoptosis in human SW1990 cells assessed as necrotic cells at 4 uM measured after 24 hrs by PI/Annexin V staining based flow cytometric analysis (reference value: 2.69%); type: functional
SW1990 [12] = test: Induction of apoptosis in human SW1990 cells assessed as viable cells at 8 uM measured after 24 hrs by PI/Annexin V staining based flow cytometric analysis (reference value: 82.9%); type: functional; conditions: read-out: Activity
SW1990 [13] = test: Induction of apoptosis in human SW1990 cells assessed as early apoptotic cells at 8 uM measured after 24 hrs by PI/Annexin V staining based flow cytometric analysis (reference value: 10.7%); type: functional
SW1990 [14] = test: Induction of apoptosis in human SW1990 cells assessed as late apoptotic cells at 8 uM measured after 24 hrs by PI/Annexin V staining based flow cytometric analysis (reference value: 3.75%); type: functional
CT26 [15] = test: Induction of apoptosis in mouse CT26 cells assessed as viable cells at 2 uM measured after 24 hrs by PI/Annexin V staining based flow cytometric analysis (reference value: 84.8%); type: functional; conditions: read-out: Activity
CT26 [16] = test: Induction of apoptosis in mouse CT26 cells assessed as early apoptotic cells at 2 uM measured after 24 hrs by PI/Annexin V staining based flow cytometric analysis (reference value: 11.2%); type: functional
CT26 [17] = test: Induction of apoptosis in mouse CT26 cells assessed as viable cells at 4 uM measured after 24 hrs by PI/Annexin V staining based flow cytometric analysis (reference value: 84.8%); type: functional; conditions: read-out: Activity
CT26 [18] = test: Induction of apoptosis in mouse CT26 cells assessed as early apoptotic cells at 4 uM measured after 24 hrs by PI/Annexin V staining based flow cytometric analysis (reference value: 11.2%); type: functional
CT26 [19] = test: Induction of apoptosis in mouse CT26 cells assessed as necrotic cells at 4 uM measured after 24 hrs by PI/Annexin V staining based flow cytometric analysis (reference value: 0.789%); type: functional
CT26 [20] = test: Induction of apoptosis in mouse CT26 cells assessed as viable cells at 8 uM measured after 24 hrs by PI/Annexin V staining based flow cytometric analysis (reference value: 84.8%); type: functional; conditions: read-out: Activity
GTPase KRas = GTPase KRas (Homo sapiens, UniProt P01116, G12D); test: Binding affinity to human his-tagged KRAS G12D mutant assessed as dissociation constant by isothermal titration calorimetry
Chain of GTPase KRas (P01116 whole entry G12D): as the sequence (P01116 whole entry G12D, looked up) above

CT26 [21] = test: Inhibition of GTP bound KRAS in mouse CT26 cells assessed as down regulation of KRAS-GTP protein level incubated for 12 hrs by Pull-Down based Western blotting analysis; type: functional, cell-based; conditions: dose 10-20 µM, DDE = dose-dependent effect
[22] = target: GTPase KRas (Homo sapiens) (UniProt P01116); test: Inhibition of wild type KRAS (unknown origin) downstream signalling in human HCT-116 cells assessed as suppression of ERK phosphorylation incubated for 24 hrs by pull down based Western blotting analysis; type: cell-based; conditions: dose <= 8.0 µM, DDE = dose-dependent effect
CT26 [23] = test: Antitumor activity against mouse CT26 cells allografted in BALB/c mouse assessed as tumor volume at 40 mg/kg, ip administered once a day for 10 days; type: functional; conditions: time 10 day
[24] = Toxicity in BALB/c mouse allografted with mouse CT26 cells assessed as effect on heart morphology at 40 to 60 mg/kg, ip administered once a day for 10 days by H and E staining based microscopic analysis; type: organism-based; conditions: in vivo, 240 h, dose 40-60 mg/kg, time 10 day
[25] = Toxicity in BALB/c mouse allografted with mouse CT26 cells assessed as effect on kidney morphology at 40 to 60 mg/kg, ip administered once a day for 10 days by H and E staining based microscopic analysis; type: organism-based; conditions: in vivo, 240 h, dose 40-60 mg/kg, time 10 day
[26] = Toxicity in BALB/c mouse allografted with mouse CT26 cells assessed as WBC level at 40 to 60 mg/kg, ip administered once a day for 10 days (reference value: 3.090 to 6.730 10^9/L); type: organism-based; conditions: in vivo, 240 h, dose 40-60 mg/kg, time 10 day
[27] = Toxicity in BALB/c mouse allografted with mouse CT26 cells assessed as monocyte level at 40 to 60 mg/kg, ip administered once a day for 10 days (reference value: 0.170 to 0.540 10^9/L); type: organism-based; conditions: in vivo, 240 h, dose 40-60 mg/kg, time 10 day
[28] = Toxicity in BALB/c mouse allografted with mouse CT26 cells assessed as RDW-CV level at 40 to 60 mg/kg, ip administered once a day for 10 days (reference value: 13.3 to 23.8 %); type: organism-based; conditions: in vivo, 240 h, dose 40-60 mg/kg, time 10 day
[29] = Toxicity in BALB/c mouse allografted with mouse CT26 cells assessed as MPV level at 40 to 60 mg/kg, ip administered once a day for 10 days (reference value: 15 to 63 fL); type: organism-based; conditions: in vivo, 240 h, dose 40-60 mg/kg, time 10 day

Activity [2]: Dde
Activity [3]: Dde
IC50 (SW1990 [4]): 2.1 µM
IC50 (HCT-116): 4.7 µM
IC50 (NCI-H358): 4.5 µM
IC50 (CT26 [5]): 2 µM
Kd (GTPase KRas): 0.033 µM
Activity [22]: Dde
Compound: COc1ccc(C(F)(F)F)cc1-c1cc2c(N3CC4CCC(C3)N4)ncnc2s1
Activity [1]: 16.1 fL
viability at 2 µM (SW1990 [6]): 74.4%
Activity (SW1990 [7]): 3.87%
Activity (SW1990 [8]): 18.6%
Activity (SW1990 [9]): 14.2%
Activity (SW1990 [10]): 29.2%
Activity (SW1990 [11]): 8.76%
viability at 8 µM (SW1990 [12]): 4.26%
Activity (SW1990 [13]): 37.1%
Activity (SW1990 [14]): 56.9%
viability at 2 µM (CT26 [15]): 78.6%
Activity (CT26 [16]): 15.4%
viability at 4 µM (CT26 [17]): 38.8%
Activity (CT26 [18]): 36.4%
Activity (CT26 [19]): 3.87%
viability at 8 µM (CT26 [20]): 8.57%
inhibition (CT26 [21]): Dde
Activity (CT26 [23]): 17%
Activity [24]: Non-Toxic
Activity [25]: Non-Toxic
Activity [26]: 5.05 10^9/L
Activity [27]: 0.15 10^9/L
Activity [28]: 14%
Activity [29]: 6.2 fL
